The record followed here is patent publication EP0082668A1, “5-(2-Halogenovinyl)-2'-deoxyuridine derivatives, processes for their preparation, pharmaceutical compositions containing them and their use in treating viral infections” (BEECHAM GROUP PLC, priority 1981, dated 1983).

Values joined by “and” are separate entries in the source; they are usually repeats but may differ in a detail not shown here. Equal values may be shown once. Read-outs that look alike come from different tables or passages of the source.

The test system of series [1] is herpes simplex type 1 virus (HFEM strain). The experiment in a line: Plaque reduction test in Vero cells infected with herpes simplex type 1 virus. The class given is cell-based. The method, then: (§1) Vero (African Green Monkey Kidney) cells were grown to confluence in 6 well multidishes, each well being 3.5 cm in diameter. The cells were incubated with herpes simplex type 1 virus (HFEM strain) and overlaid with 0.5 mL of 0.9% agarose (w/v) in maintenance medium containing the test compound at a range of concentrations from 100 pg/mL in half-log dilution steps. The virus infected cultures were then incubated at 37°C for 6 days before fixing in 4% formaldehyde solution and staining with carbolfuchsin. The dishes were then examined to find the concentration of test compound causing a 50% reduction in the number of virus plaques formed (PDD50 value) and the minimum concentration of test compound which killed the cell monolayer, leaving a clear zone devoid of cells and virus plaques (MTD).
In general terms: In a plaque reduction assay, fewer plaques than in the control indicate reduced infectivity or spread.

The nature of series [2]: Minimum concentration killing the cell monolayer (MTD), read in the plaque reduction test. The following applies: monkey, vero cells; minimum concentration which killed the cell monolayer; virus infected Vero cultures, 6 days at 37°C. In kind it is cell-based, African Green Monkey. The procedure:
as §1

Where [3] appears, read: Human alphaherpesvirus 1, 144 h, concentration causing a 50% reduction in the number of virus plaques, Vero cells, HFEM strain, 6 days at 37°C, molar, read-out: PDD50 (the source's name).
The mark [4] stands for this setting: Human alphaherpesvirus 1, 144 h, concentration causing a 50% reduction in the number of virus plaques, Vero cells, HFEM strain, 6 days at 37°C, read-out: PDD50 (the source's name).
[5] abbreviates: Human alphaherpesvirus 1, Vero, 144 h, read-out: PDD50.

Take `O=C(OC[C@H]1O[C@@H](n2cc(/C=C/Br)c(=O)[nH]c2=O)C[C@@H]1OC(=O)c1ccccc1)c1ccccc1` [Example 2, E-5-(2-bromovinyl)-3',5'-di-O-benzoyl-2'-deoxyuridine]: the IC50 worked out at 100000 nM in series [1] (setting [3]) and 54 µg/mL in series [1] (setting [4]). The MCC at 144 h in series [2] is greater than 100 µg/mL.
The matching figures for `O=C(OC[C@H]1O[C@@H](n2cc(/C=C/Br)c(=O)[nH]c2=O)C[C@@H]1O)c1ccccc1` [Example 3, 5'-O-benzoyl-E-5-(2-bromovinyl)-2'-deoxyuridine]: 3700 nM, 1.7 µg/mL and greater than 100 µg/mL.
On to `O=C(O[C@H]1C[C@H](n2cc(/C=C/Br)c(=O)n(C(=O)c3ccccc3)c2=O)O[C@@H]1CO)c1ccccc1` [Example 10, 3-N-Benzoyl-3'-O-benzoyl-E-5-(2-bromovinyl)-2'-deoxyuridine], for which the values for the IC50 in series [1] (setting [3]) and in series [1] (setting [4]) were 3800 nM and 2.1 µg/mL, respectively. In addition, the MCC at 144 h in series [2] was determined as 100 µg/mL.
As for `O=C(O[C@H]1C[C@H](n2cc(/C=C/Br)c(=O)[nH]c2=O)O[C@@H]1CO)c1ccccc1` [Example 11, 3'-O-Benzoyl-E-5-(2-bromovinyl)-2'-deoxyuridine], the IC50 in series [1] (setting [3]) worked out at 3700 nM; in series [1] (setting [4]), 1.6 µg/mL. The MCC at 144 h in series [2] was greater than 100 µg/mL.
Take `O=C(c1ccccc1)n1c(=O)c(/C=C/Br)cn([C@H]2C[C@H](O)[C@@H](CO)O2)c1=O` [Example 12, 3-N-Benzoyl-E-5-(2-bromovinyl)-2'-deoxyuridine]: the IC50 stood at 530 nM in series [1] (setting [3]) and 0.23 µg/mL in series [1] (setting [4]). In series [2], the MCC at 144 h was 100 µg/mL.
As to `O=C(OC[C@H]1O[C@@H](n2cc(/C=C/Br)c(=O)[nH]c2=O)C[C@@H]1OC(=O)c1ccc(Cl)cc1)c1ccc(Cl)cc1` [Example 15, E-5-(2-Bromovinyl)-3',5'-di-O-p-chlorobenzoyl-2'-deoxyuridine], the IC50 turned out to be 121000 nM in series [1] (setting [3]) and 74 µg/mL in series [1] (setting [4]). Also, in series [2], the MCC at 144 h is greater than 100 µg/mL.
For `O=C(Cc1ccccc1)OC[C@H]1O[C@@H](n2cc(/C=C/Br)c(=O)[nH]c2=O)C[C@@H]1OC(=O)Cc1ccccc1` [Example 17, E-5-(2-Bromovinyl)-3',5'-di-0-phenylacetyl-2'-deoxyuridine], in series [1] (setting [5]), the IC50 was 3.9 µg/mL and 6.9 µM. The same compound came in with an MCC at 144 h in series [2] greater than 100 µg/mL.
Regarding `O=C(OC[C@H]1O[C@@H](n2cc(/C=C/Br)c(=O)[nH]c2=O)C[C@@H]1O)c1ccc(Cl)cc1` [Example 18, E-5-(2-Bromovinyl)-5'-0-p-chlorobenzoyl-2'-deoxyuridine], the results for the IC50 in series [1] (setting [3]) and in series [1] (setting [4]) were 1780 nM and 0.84 µg/mL, respectively. This compound also yielded an MCC at 144 h in series [2] greater than 100 µg/mL.
On to `COc1ccc(C(=O)OC[C@H]2O[C@@H](n3cc(/C=C/Br)c(=O)[nH]c3=O)C[C@@H]2O)cc1` [Example 19, E-5-(2-Bromovinyl)-5'-p-methoxybenzoyl-2'-deoxyuridine], for which the IC50 in series [1] (setting [3]) was 13500 nM; in series [1] (setting [4]), 6.3 µg/mL. The compound further had an MCC at 144 h in series [2] of 100 µg/mL.
With `O=C(c1ccc(Cl)cc1)n1c(=O)c(/C=C/Br)cn([C@H]2C[C@H](O)[C@@H](CO)O2)c1=O` [Example 20, E-5-(2-Bromovinyl)-3-N-p-chlorobenzoyl-2'-deoxyuridine], the IC50 is 250 nM in series [1] (setting [3]) and 0.12 µg/mL in series [1] (setting [4]). The MCC at 144 h in series [2] is greater than 100 µg/mL.
`COc1ccc(C(=O)n2c(=O)c(/C=C/Br)cn([C@H]3C[C@H](O)[C@@H](CO)O3)c2=O)cc1` [Example 21, E-5-(2-Bromovinyl)-3-N-p-methoxybenzoyl-2'-deoxyuridine]: the figures for the IC50 in series [1] (setting [3]) and in series [1] (setting [4]) were 540 nM and 0.25 µg/mL, respectively. This compound had an MCC at 144 h in series [2] greater than 100 µg/mL.
For the compound `C[Si](C)(C)OC[C@H]1O[C@@H](n2cc(/C=C/Br)c(=O)[nH]c2=O)C[C@@H]1O[Si](C)(C)C` [Example 22, E-5-(2-Bromovinyl)-3',5'-bis-O-trimethylsilyl-2'-deoxyuridine], the IC50 in series [1] (setting [5]) was 0.24 µg/mL and 500 nM. Also, the MCC at 144 h in series [2] was greater than 100 µg/mL.
As to `CCCCC(=O)n1c(=O)c(/C=C/Br)cn([C@H]2C[C@H](O)[C@@H](CO)O2)c1=O` [Example 23, E-5-(2-Bromovinyl)-3-N-valeryl-2'-deoxyuridine], the values for the IC50 in series [1] (setting [3]) and in series [1] (setting [4]) were 620 nM and 0.26 µg/mL, respectively. Besides, the MCC at 144 h in series [2] was greater than 100 µg/mL.
With `CC(C)(C)C(=O)n1c(=O)c(/C=C/Br)cn([C@H]2C[C@H](O)[C@@H](CO)O2)c1=O` [Example 24, E-5-(2-Bromovinyl)-3-N-pivaloyl-2'-deoxyuridine], the values for the IC50 in series [1] (setting [3]) and in series [1] (setting [4]) were 1100 nM and 0.46 µg/mL, respectively. The same compound had an MCC at 144 h in series [2] greater than 100 µg/mL.
In the case of `O=C(C1CCCCC1)n1c(=O)c(/C=C/Br)cn([C@H]2C[C@H](O)[C@@H](CO)O2)c1=O` [Example 25, E-5-(2-Bromovinyl)-3-N-cyclohexanecarbonyl-2^1-deoxyuridine], the IC50 turned out to be 720 nM in series [1] (setting [3]) and 0.32 µg/mL in series [1] (setting [4]). For the same compound, in series [2], the MCC at 144 h is greater than 100 µg/mL.
As to `O=C(c1cccc(Cl)c1)n1c(=O)c(/C=C/Br)cn([C@H]2C[C@H](O)[C@@H](CO)O2)c1=O` [Example 26, E-5-(2-Bromovinyl)-3-N-(3-chlorobenzoyl)-2^1-deoxyuridine], the IC50 in series [1] (setting [3]) stood at 530 nM; in series [1] (setting [4]), 0.25 µg/mL. Besides, the MCC at 144 h in series [2] was greater than 100 µg/mL.
As to `CCCN(CCC)S(=O)(=O)c1ccc(C(=O)OC[C@H]2O[C@@H](n3cc(/C=C/Br)c(=O)[nH]c3=O)C[C@@H]2O)cc1` [Example 29, E-5-(2-Bromovinyl)-5'-p-(dipropylsulphamoyl)benzoyl-2'-deoxyuridine], the results for the IC50 in series [1] (setting [3]) and in series [1] (setting [4]) were 1870 nM and 1.12 µg/mL, respectively. Besides, in series [2], the MCC at 144 h was greater than 100 µg/mL.
Take `CCCN(CCC)S(=O)(=O)c1ccc(C(=O)n2c(=O)c(/C=C/Br)cn([C@H]3C[C@H](O)[C@@H](CO)O3)c2=O)cc1` [Example 30, E-5-(2-Bromovinyl)-3-[4-(N,N-di-n-propylsulphamoyl)benzoyl]-2'-deoxyuridine]: the values for the IC50 in series [1] (setting [3]) and in series [1] (setting [4]) were 180 nM and 0.11 µg/mL, respectively. In series [2], this compound showed an MCC at 144 h greater than 100 µg/mL.
Turning to `O=C(OC[C@H]1O[C@@H](n2cc(/C=C/Br)c(=O)[nH]c2=O)C[C@@H]1OC(=O)c1ccc([N+](=O)[O-])cc1)c1ccc([N+](=O)[O-])cc1` [Example 31, E-5-(2-bromovinyl)-3',5'-di-O(4-nitrobenzoyl)-2-deoxy-uridine], in series [1] (setting [5]), the IC50 was 20 µg/mL and 32 µM. Also, the MCC at 144 h in series [2] was greater than 100 µg/mL.
`O=C(OC[C@H]1O[C@@H](n2cc(/C=C/Br)c(=O)[nH]c2=O)C[C@@H]1O)c1ccc([N+](=O)[O-])cc1` [Example 32, E-5-(2-Bromovinyl)-5' -O-(4-nitrobenzoyl)-2'-deoxyuridine]: the IC50 in series [1] (setting [3]) is 2000 nM; in series [1] (setting [4]), 0.95 µg/mL. The same compound displayed an MCC at 144 h in series [2] greater than 100 µg/mL.
Consider `O=C(OC[C@H]1O[C@@H](n2cc(/C=C/Br)c(=O)[nH]c2=O)C[C@@H]1OC(=O)c1ccc(Cl)c(Cl)c1)c1ccc(Cl)c(Cl)c1` [Example 33, E-5-(2-bromovinyl)-3',5'-di-O-(3,4-dichlorobenzoyl)-2'-deoxyuridine], for which the results for the IC50 in series [1] (setting [3]) and in series [1] (setting [4]) were 147000 nM and 100 µg/mL, respectively. In series [2], the MCC at 144 h is greater than 100 µg/mL.
Regarding `O=C(O[C@H]1C[C@H](n2cc(/C=C/Br)c(=O)[nH]c2=O)O[C@@H]1CO)c1ccc(Cl)c(Cl)c1` [Example 34, E-5-(2-bromovinyl)-3'-O-(3,4-dichlorobenzoyl)-2'-deoxyuridine], the IC50 in series [1] (setting [3]) came to 2300 nM; in series [1] (setting [4]), 1.2 µg/mL. This compound also showed an MCC at 144 h in series [2] greater than 100 µg/mL.
The like results for `O=C(OC[C@H]1O[C@@H](n2cc(/C=C/Br)c(=O)[nH]c2=O)C[C@@H]1O)c1ccc(Cl)c(Cl)c1` [Example 35, E-5-(2-Bromovinyl)-5' -O-(3 ,4-dichlorobenzoyl)-2'-deoxyuridine] were, in that order, 2800 nM, 1.4 µg/mL and greater than 100 µg/mL.
The matching figures for `Cc1ccc(C(=O)O[C@H]2C[C@H](n3cc(/C=C/Br)c(=O)[nH]c3=O)O[C@@H]2CO)cc1` [Example 37, E-5-(2-bromovinyl)-3'-O-(4-methylbenzoyl)-2'-deoxyuridine]: 1400 nM, 0.63 µg/mL and greater than 100 µg/mL.
For `Cc1ccc(C(=O)OC[C@H]2O[C@@H](n3cc(/C=C/Br)c(=O)[nH]c3=O)C[C@@H]2O)cc1` [Example 38, E-5-(2-Bromovinyl)-5'-O-(4-methylbenzoyl)-2' -deoxyuridine], the values for the IC50 in series [1] (setting [3]) and in series [1] (setting [4]) were 1700 nM and 0.78 µg/mL, respectively. This compound registered an MCC at 144 h in series [2] greater than 100 µg/mL.
The matching figures for `CCCCc1ccc(C(=O)OC[C@H]2O[C@@H](n3cc(/C=C/Br)c(=O)[nH]c3=O)C[C@@H]2O)cc1` [Example 40, E-5-(2-bromovinyl)-5'-0-(4-n-butylbenzoyl)-2'-deoxyuridine]: 12000 nM, 6.1 µg/mL and greater than 100 µg/mL.
As to `CN(C)c1ccc(C(=O)O[C@H]2C[C@H](n3cc(/C=C/Br)c(=O)[nH]c3=O)O[C@@H]2CO)cc1` [Example 42, E-5-{2-bromovinyl)-3'-O-(4-N,N-dimethylaminobenzoyl)-2'-deoxyuridine], the IC50 in series [1] (setting [3]) turned out to be 1400 nM; in series [1] (setting [4]) it was 0.63 µg/mL. Moreover, the MCC at 144 h in series [2] is greater than 100 µg/mL.
